Experimental data taken from the NIST ThermoML archive (doi:10.1016/j.jct.2017.08.004).

Conditions: for molar entropy: 101.33 kPa

O[C@H]1[C@H](O)[C@@H](O)[C@H](O)[C@@H](O)[C@H]1O [cis-1,2,3,5-trans-4,6-cyclohexanehexol]
Conditions	molar entropy [J/K/mol]
1 K, Crystal, relaxation calorimetry	0.001133
2 K, Crystal, relaxation calorimetry	0.00457
3 K, Crystal, relaxation calorimetry	0.01283
4 K, Crystal, relaxation calorimetry	0.0288
5 K, Crystal, relaxation calorimetry	0.05587
6 K, Crystal, relaxation calorimetry	0.09786
7 K, Crystal, relaxation calorimetry	0.1588
8 K, Crystal, relaxation calorimetry	0.2429
9 K, Crystal, relaxation calorimetry	0.3528
10 K, Crystal, relaxation calorimetry	0.4907
15 K, Crystal, relaxation calorimetry	1.619
20 K, Crystal, relaxation calorimetry	3.401
25 K, Crystal, relaxation calorimetry	5.648
30 K, Crystal, relaxation calorimetry	8.19
35 K, Crystal, relaxation calorimetry	10.93
40 K, Crystal, relaxation calorimetry	13.82
45 K, Crystal, relaxation calorimetry	16.84
50 K, Crystal, relaxation calorimetry	19.96
55 K, Crystal, relaxation calorimetry	23.14
60 K, Crystal, relaxation calorimetry	26.38
65 K, Crystal, relaxation calorimetry	29.66
70 K, Crystal, relaxation calorimetry	33
75 K, Crystal, relaxation calorimetry	36.38
80 K, Crystal, relaxation calorimetry	39.8
85 K, Crystal, relaxation calorimetry	43.26
90 K, Crystal, relaxation calorimetry	46.76
95 K, Crystal, relaxation calorimetry	50.29
100 K, Crystal, relaxation calorimetry	53.84
110 K, Crystal, relaxation calorimetry	61.01
120 K, Crystal, relaxation calorimetry	68.23
130 K, Crystal, relaxation calorimetry	75.5
140 K, Crystal, relaxation calorimetry	82.8
150 K, Crystal, relaxation calorimetry	90.1
160 K, Crystal, relaxation calorimetry	97.42
170 K, Crystal, relaxation calorimetry	104.72
180 K, Crystal, relaxation calorimetry	112.03
190 K, Crystal, relaxation calorimetry	119.33
200 K, Crystal, relaxation calorimetry	126.62
210 K, Crystal, relaxation calorimetry	133.91
220 K, Crystal, relaxation calorimetry	141.19
230 K, Crystal, relaxation calorimetry	148.47
240 K, Crystal, relaxation calorimetry	155.74
250 K, Crystal, relaxation calorimetry	163.02
260 K, Crystal, relaxation calorimetry	170.3
270 K, Crystal, relaxation calorimetry	177.58
273.15 K, Crystal, relaxation calorimetry	179.88
280 K, Crystal, relaxation calorimetry	184.87
290 K, Crystal, relaxation calorimetry	192.17
298.15 K, Crystal, relaxation calorimetry	198.12
300 K, Crystal, relaxation calorimetry	199.48
305 K, Crystal, Small sample (50 mg) DSC	203.13
310 K, Crystal, Small sample (50 mg) DSC	206.81
315 K, Crystal, Small sample (50 mg) DSC	210.5
320 K, Crystal, Small sample (50 mg) DSC	214.2
325 K, Crystal, Small sample (50 mg) DSC	217.91
330 K, Crystal, Small sample (50 mg) DSC	221.64
335 K, Crystal, Small sample (50 mg) DSC	225.37
340 K, Crystal, Small sample (50 mg) DSC	229.11
345 K, Crystal, Small sample (50 mg) DSC	232.86
350 K, Crystal, Small sample (50 mg) DSC	236.62
355 K, Crystal, Small sample (50 mg) DSC	240.38
360 K, Crystal, Small sample (50 mg) DSC	244.15
365 K, Crystal, Small sample (50 mg) DSC	247.92
370 K, Crystal, Small sample (50 mg) DSC	251.69
375 K, Crystal, Small sample (50 mg) DSC	255.47
380 K, Crystal, Small sample (50 mg) DSC	259.25
385 K, Crystal, Small sample (50 mg) DSC	263.03
390 K, Crystal, Small sample (50 mg) DSC	266.82
395 K, Crystal, Small sample (50 mg) DSC	270.6
400 K, Crystal, Small sample (50 mg) DSC	274.38
405 K, Crystal, Small sample (50 mg) DSC	278.16
410 K, Crystal, Small sample (50 mg) DSC	281.94
415 K, Crystal, Small sample (50 mg) DSC	285.72
420 K, Crystal, Small sample (50 mg) DSC	289.5
425 K, Crystal, Small sample (50 mg) DSC	293.27
430 K, Crystal, Small sample (50 mg) DSC	297.05
435 K, Crystal, Small sample (50 mg) DSC	300.82
440 K, Crystal, Small sample (50 mg) DSC	304.59
445 K, Crystal, Small sample (50 mg) DSC	308.35
450 K, Crystal, Small sample (50 mg) DSC	312.12
455 K, Crystal, Small sample (50 mg) DSC	315.89
460 K, Crystal, Small sample (50 mg) DSC	319.66
465 K, Crystal, Small sample (50 mg) DSC	323.43
470 K, Crystal, Small sample (50 mg) DSC	327.21
475 K, Crystal, Small sample (50 mg) DSC	331
480 K, Crystal, Small sample (50 mg) DSC	334.8
485 K, Crystal, Small sample (50 mg) DSC	338.61
490 K, Crystal, Small sample (50 mg) DSC	342.46
495 K, Crystal, Small sample (50 mg) DSC	346.55
510 K, Liquid, Small sample (50 mg) DSC	453.9
515 K, Liquid, Small sample (50 mg) DSC	458.89
520 K, Liquid, Small sample (50 mg) DSC	463.79
525 K, Liquid, Small sample (50 mg) DSC	468.65
530 K, Liquid, Small sample (50 mg) DSC	473.46
535 K, Liquid, Small sample (50 mg) DSC	478.23
540 K, Liquid, Small sample (50 mg) DSC	482.95

Conditions	Normal melting temperature [°C]
Crystal, DTA	224.58
